# Assay: Proton NMR stability check in deuterium oxide after heating and after sunlight exposure
# Format: physicochemical
# Settings: with table sugar, Equal, Sweet'N Low and Splenda
# Description: All ^1H NMR spectra were obtained on a Varian Mercury 300 NMR spectrometer operating at ambient temperature. Solutions were prepared in deuterium oxide solvent (isotopically labeled water). Samples were prepared by dissolving a measured amount of solid in sufficient solvent to produce a total volume of approximately 1 mL. Initial samples were prepared just before spectra were obtained in order to minimize possible premature hydrolysis or attack by microbes in the case of sugar solutions. Samples were later re-examined after heating at 70.0 to 92.0° C. (158 to 198° F.) for 98 minutes and then again after being stored outside on the roof exposed to Central Florida sunlight and heat for 47.3 hours.
smiles,measurement,value
"O=C1O[C@H]([C@@H](O)CO)C(O)=C1O [Vit. C, ascorbic acid]",chemical compatibility with sweeteners,chemically compatible

# — patent publication US20050214412A1, “APPARATUS AND METHOD FOR DELIVERING NUTRITIONAL SUPPLEMENTS WITH BEVERAGE SWEETENERS” (priority 2004, published 2005)
